Earlier results as cited in patent US20110236508A1, “L-ARGININE-BASED FORMULATION FOR ORAL ABSORPTION” (priority 2008, published 2011).

How the values were obtained:
coronary artery disease = conditions: 9 g/day orally for 6 months
[1] = system: coronary endothelial dysfunction; conditions: oral 3 g TID, after 6 months
[2] = system: peripheral arterial disease; conditions: 8 g, bid, 14 days
[3] = 24 hypercholesterolemic patients, 14 g/day for 12 weeks
anginal patients = conditions: 6 g/day
mice deficient in Apo-E = conditions: 6% L-arginine drinking solution

N=C(N)NCCC[C@H](N)C(=O)O [L-arginine]
decrease in anginal episodes (coronary artery disease): 70% | improvement of acetylcholine-induced coronary vascular relaxation (coronary artery disease): 149% | patients' symptoms scores ([1]; compared with placebo): improvement | plasma endothelin concentrations ([1]; compared with placebo): decrease | coronary blood flow in response to acetylcholine ([1]; P<0.05 versus placebo): 149±20% | improvement in walking distance [2]: 150% | adverse effects [3]: no reports of any adverse effects | flow-mediated dilation (FMD) of the brachial artery (brachial artery; 8 g p.o. two times daily for 14 days, 12 healthy old subjects, p<0.0001): 5.7+/−1.2% | plasma levels of L-arginine (brachial artery; after 8 g p.o. two times daily for 14 days, versus 57.4+/−5.0): 114.9 ± 11.6 µM | ADMA plasma concentrations (brachial artery; during treatment, 8 g p.o. two times daily for 14 days): remained unchanged | exercise tolerance (anginal patients): improved | time to 1 mm ST-segment depression during exercise-stress testing (anginal patients): increased | increase in treadmill exercise performance (mice deficient in Apo-E): 61%
